What all share (experiment): inhibition of tumour cell growth, NCI panel, 48 h
Assay [1] relates to KM12 colon.
The subject of assay [2] is NCI-H460 lung.
The subject of assay [3] is SK-OV-3 ovarian.
For assay [4], the system named is SW-620 colon.
Assay [5] relates to UACC-257 melanoma.
Assay [6] relates to UO-31 renal.
Assay [7] relates to TK-10 renal.
Assay [8] relates to DU-145 prostate.
The test system of assay [9] is MDA-MB-231 breast.
In assay [10] the test system is HS 578T breast.

Structures are written as SMILES.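 Five compound concentrations were applied to cells in 96-well plates for 48 hours; endpoints were derived by simple linear interpolation of the resulting dose-response curve. GI50 = concentration required for 50% inhibition of growth. At the TGI there is no net growth.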 Where only a bound is given, the exact number is not on record here.

Turning to `CC(=O)[CH-]C(=O)c1ccccc1.CC(=O)[CH-]C(=O)c1ccccc1.O=S(=O)([O-])c1cc([O-])c2c([O-])cc(S(=O)(=O)[O-])cc2c1.[Na+].[Ti+4]`, the GI50 in assay [1] is 30.2 µM; in assay [2], more than 100000 nM; in assay [3], more than 100 µM; in [4], more than 100000 nM; in assay [5], 77.1 µM; in assay [6] it was more than 100 µM. For the same molecule, the TGI in assay [1], in assay [2], in assay [3], in [4], in assay [5] and in assay [6] was more than 100 µM throughout.
On to `CCc1cccc(C)c1NC(=O)CC1C(=O)Nc2ccccc2S1=O` (configuration not stated), for which the TGI in assay [1] was more than 100 µM; in assay [2], more than 100 µM; in [4], more than 100 µM; in assay [7] it was more than 100 µM; in assay [5], 86.5 µM; in assay [6] it was more than 100 µM.
Regarding `N#Cc1c(-c2ccco2)cc(-c2ccc(N)cc2)[nH]c1=O`, the TGI in assay [1], in assay [2], in [3], in assay [4], in [7] and in [5] was more than 100 µM each time. This molecule yielded a TGI in assay [6] of more than 100 µM.
Turning to `O=C1C2[C@@H](C(=O)N1c1ccc(Br)cc1)C13C(=CC2([N+](=O)[O-])[C@@H]2C(=O)N(c4ccc(Br)cc4)C(=O)[C@@H]21)c1ccccc1N3c1ccccc1` (some centres not stated), the TGI in assay [1] was more than 100 µM; in [4], more than 100 µM; in [7], more than 100 µM; in assay [5] it was more than 100 µM; in [6] it was 38.7 µM.
Take `NC(=S)N/N=C1\CCCC\C1=C/c1ccccc1`: the TGI in assay [1] is more than 100 µM; in assay [2], more than 100 µM; in [3], more than 100 µM; in assay [4], more than 100 µM; in assay [7], more than 100 µM; in [5], 44.4 µM. In assay [6], this molecule had a TGI of more than 100 µM.
On to `CC12CCC(=O)N1c1cccnc1N2` (configuration not stated), for which the TGI in assay [1], in assay [2], in [3], in assay [4], in assay [7] and in assay [5] was more than 100 µM throughout. The TGI in assay [6] was more than 100 µM.
Consider `Cc1ccc2c(c1-c1ccccc1)C(=O)OC2`, for which the TGI in assay [1], in [3], in [4], in [7], in assay [5] and in assay [6] was more than 100 µM throughout.
With `O=C1C=CC(=CC=C2C=CN(CCCCCCCCCCC(=O)NCCCCCCCCCCCC(=O)O)C=C2)C=C1`, the TGI in [1], in assay [2], in assay [3], in assay [4], in assay [7] and in assay [5] was more than 100 µM each time. In assay [6], this molecule registered a TGI of more than 100 µM.
Take `CCOC(=O)C(C)(c1c(C)[nH]c2ccccc12)c1c(C)[nH]c2ccccc12`: the TGI stood at 33.2 µM in assay [1]; 38.7 µM in assay [2]; 52.9 µM in [3]; 40.8 µM in [4]; 45.6 µM in assay [7]; 28 µM in [5]. In addition, in [6], the TGI came to 35 µM.
For the molecule `NC(CCc1ncc(C(=O)O)s1)C(=O)O` (configuration not stated), the TGI in assay [1], in assay [2], in assay [3], in assay [4], in [7] and in assay [5] was more than 100 µM in each case. Moreover, the TGI in assay [6] was more than 100 µM.
On to `Cc1ccc(N2C(=O)N(c3ccc(C)cc3)C3(SC=NN3C)C2=O)cc1` (configuration not stated), for which the TGI in assay [1], in [2], in assay [3], in assay [4], in assay [7] and in assay [5] was more than 100 µM throughout. The molecule also registered a TGI in assay [6] of more than 100 µM.
Turning to `Cc1c(Cl)cccc1NC(=O)c1cccc([N+](=O)[O-])c1O`, the TGI is more than 68.5 µM in assay [1]; 43.3 µM in [2]; more than 80.2 µM in [3]; more than 100 µM in assay [4]; more than 100 µM in assay [7]; 38.8 µM in assay [5]. Besides, the TGI in assay [6] came out at 40.5 µM.
Consider `CC(C)(C)OC(=O)N1C2CCCC23O[C@@H]1c1cc2c(cc1C3=O)OCO2` (some centres not stated), for which the TGI was more than 100 µM in assay [1]; more than 100 µM in assay [2]; 94 µM in [3]; more than 100 µM in [4]; more than 100 µM in assay [7]; more than 100 µM in assay [5]. Also, the TGI in assay [6] was more than 100 µM.
Turning to `CC1CCC(C(C)(C)c2ccccc2)C(=O)C1` (configuration not stated), the TGI in [1], in assay [2], in [3], in assay [4], in [7] and in [5] was more than 100 µM in each case. This molecule registered a TGI in [6] of more than 100 µM.
Take `Cc1ccc2[c](c1)[Sn]([c]1ccccc1)([c]1ccccc1)[c]1cc(C)ccc1N2C`: the GI50 is 29.8 µM in assay [1]; 51200 nM in assay [2]; more than 100 µM in assay [3]; 18900 nM in assay [4]; more than 100000 nM in assay [7]; 57.8 µM in assay [5]. Moreover, the GI50 in [6] was more than 100 µM. The TGI in assay [1] is more than 100 µM; in [2], more than 100 µM; in [3], more than 100 µM; in assay [4], 53.7 µM; in [7], more than 100 µM; in [5] it was more than 100 µM. In addition, the TGI in [6] was more than 100 µM.
As for `CN(C)CCNc1nc2ccccc2c2c(=O)c3cc(F)ccc3sc12`, the GI50 is 1770 nM in [8]; 1.93 µM in assay [1]; 1470 nM in assay [9]; 1790 nM in assay [2]; 1670 nM in assay [4]; 1760 nM in assay [7]. The values for the GI50 in assay [5] and in assay [6] were 2.12 µM and 1.4 µM, respectively. The TGI was 3.21 µM in [8]; 3.56 µM in assay [1]; 2880 nM in assay [9]; 3.42 µM in assay [2]; 3.23 µM in assay [4]; 3.33 µM in [7]. Also, the TGI stood at 4.16 µM in assay [5] and 2.73 µM in assay [6].
In the case of `NCCN.O=C([O-])[O-].O=C([O-])[O-].[Co+3].[K+]`, the GI50 in assay [1] was more than 100 µM; in [2], more than 100000 nM; in assay [3] it was more than 100 µM; in [4], more than 100000 nM; in [7] it was more than 100000 nM; in assay [5], more than 100 µM. Further, in assay [6], the GI50 is more than 100 µM. Besides, the TGI in [1], in assay [2], in assay [3], in assay [4], in assay [7] and in [5] was more than 100 µM throughout. The molecule further came in with a TGI in assay [6] of more than 100 µM.
For the molecule `CCCCCCCCCCCCCCCCCCC1=C(O)C(=O)C=C(OC)C1=O`, the TGI in assay [1], in assay [2], in [3], in [4], in assay [7] and in [5] was more than 100 µM in each case. Besides, the TGI in [6] is more than 100 µM.
Consider `COc1cc2c(cc1OC)C1Cc3cc(OC)c(OC)cc3N1CC2` (configuration not stated), for which the TGI is more than 100 µM in assay [1]; more than 100 µM in assay [2]; more than 100 µM in assay [3]; more than 100 µM in assay [4]; 50.5 µM in assay [7]; more than 100 µM in [5]. The TGI in assay [6] came out at 86 µM.
For the molecule `COC(=O)c1c[nH]cc1CCCCc1c[nH]cc1C(=O)OC`, the TGI in assay [1], in assay [2], in assay [3], in [4], in [7] and in [5] was more than 100 µM each time.
`CCOc1ccc(N=Cc2c3ccccc3nc3ccccc23)cc1`: the TGI was 84.7 µM in assay [1]; more than 100 µM in [2]; more than 100 µM in assay [3]; more than 100 µM in [4]; more than 100 µM in assay [7]; more than 100 µM in assay [5]. The molecule further displayed a TGI in [6] of more than 100 µM.
On to `O=C1CC2CCN(C(=O)c3ccccc3)CC2CCN1` (configuration not stated), for which the TGI in assay [1], in [2], in assay [3], in assay [4], in assay [7] and in assay [5] was more than 100 µM throughout. In addition, the TGI in [6] is more than 100 µM.
As to `Cc1cc(NCCCCNc2ccnc3cc(Cl)ccc23)nc(Nc2ccc(C(=O)N3CCCCC3)cc2)n1`, the GI50 is 2870 nM in [8]; 1.91 µM in assay [1]; 1780 nM in assay [2]; 2.78 µM in [3]; 1460 nM in assay [4]; 2110 nM in assay [7]. The GI50 in [5] was 1.89 µM. In addition, the TGI is 10.7 µM in assay [8]; 4.21 µM in [1]; 3.78 µM in [2]; 6.13 µM in assay [3]; 3.04 µM in assay [4]; 4.13 µM in assay [7]. In assay [5], this molecule came in with a TGI of 3.42 µM.
Turning to `CCC[CH2][Sn]1([CH2]CCC)[O]CC(COc2c(Cl)cc(Cl)cc2Cl)[O]1` (configuration not stated), the GI50 in assay [1] is 1.8 µM; in [2] it was 2670 nM; in [3] it was 4.18 µM; in assay [4], 1130 nM; in assay [5], 1.11 µM; in assay [6], 1.68 µM. Besides, the TGI stood at 3.54 µM in assay [1]; 7.98 µM in assay [2]; 12.3 µM in assay [3]; 2.62 µM in [4]; 2.33 µM in assay [5]; 3.21 µM in assay [6].
Consider `CCOC(=O)C1=C(Nc2ccc(Br)cc2)OCC1=O`, for which the TGI in [1], in assay [2], in [3], in [4], in assay [7] and in assay [5] was more than 100 µM throughout. In assay [6], the TGI is more than 100 µM.
Consider `CCc1nc(Cl)c(Cl)c(Cl)n1`, for which the TGI in [10], in assay [1], in assay [2], in assay [3], in assay [4] and in assay [7] was more than 100 µM in each case. The TGI in [5] and in assay [6] was more than 100 µM in each case.
As to `Cc1ccc(C)c(N2C(=O)C(=O)C(c3nc4ccccc4o3)/C(=N/N)C2=O)c1` (configuration not stated), the TGI in assay [1], in assay [2], in [3], in assay [4], in [7] and in assay [5] was more than 100 µM throughout. The TGI in assay [6] is more than 100 µM.
Take `C[P+](C)(C)c1ccccc1`: the TGI in assay [1], in assay [2], in assay [3], in assay [4], in assay [7] and in assay [5] was more than 100 µM throughout. In assay [6], the TGI was more than 100 µM.
With `Oc1ccc(Oc2cnc3ccccc3n2)cc1`, the GI50 was more than 100000 nM in [8]; 45 µM in [1]; more than 100000 nM in assay [9]; more than 100000 nM in assay [2]; more than 100 µM in [3]; more than 100000 nM in [4]. Besides, the GI50 was more than 100000 nM in assay [7], more than 100 µM in [5] and 66.6 µM in [6]. Besides, the TGI was more than 100 µM in assay [8]; more than 100 µM in assay [1]; more than 100000 nM in [9]; more than 100 µM in assay [2]; more than 100 µM in assay [3]; more than 100 µM in assay [4]. The TGI in assay [7], in assay [5] and in assay [6] was more than 100 µM each time.
For the molecule `Cc1ccc(C)c(N2C(=O)C(=O)C(c3nc4ccccc4o3)/C(=N\NC(=O)c3ccccc3O)C2=O)c1` (configuration not stated), the TGI is more than 100 µM in assay [3]; more than 100 µM in assay [4]; more than 100 µM in assay [7]; more than 100 µM in assay [5]; 87.6 µM in assay [6].
In the case of `O=C1c2ccc3c4ccccc4n(-c4ccccc4)c3c2C(=O)N1c1ccc(Cl)cc1`, the TGI in assay [1], in assay [2], in [3], in assay [4], in assay [7] and in [5] was more than 100 µM each time. In addition, the TGI in assay [6] is more than 100 µM.
